Measured values as given in patent US20260028326A1, “COMPOUND BASED ON ISOINDOLINE-SUBSTITUTED GLUTARIMIDE BACKBONE AND USE THEREOF” (GLUETACS THERAPEUTICS (SHANGHAI) CO., LTD., priority 2022, published 2026).

What was measured:
[1] = molecular target: human Cereblon WT GST-tagged protein (Homo sapiens (Human), UniProt Q96SW2); assay: CRBN-binding affinity, HTRF (CEREBLON BINDING kit)
Procedure, shortened: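 HTRF competition readout: compounds compete with a thalidomide-Re conjugate for GST-tagged wild-type human CRBN detected via Eu-labelled anti-GST antibody. Inhibition rate derived relative to protein-free blank wells.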

[2] = test system: MM.1S cells; assay: Tumor cell proliferation IC50 (CCK-8), MM.1S; conditions: Homo sapiens, MM1.S, 72 h, read-out: IC50 for inhibiting the proliferation of tumor cells, MM.1S;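 note: viability of cultured cells read by CCK-8 reagent after compound exposure, growth inhibition curves fitted to derive IC50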
Protocol: The tumor cells used herein were cultured in a cell culture medium listed in table A at 37° C. in an incubator with 5% CO2.
After the cells were treated with the compounds of the present disclosure for a period of time, the cell viability detection reagent was added to the culture medium for cell viability assessment according to the instructions provided with the CCK-8 kit. […] The growth inhibition of the compounds of the present disclosure on cells was plotted by Prism Graphpad software, and the IC50 values of the compounds of the present disclosure were calculated therefrom.

[3] = molecular target: IKZF3 protein (Homo sapiens (Human), UniProt Q96SW2+Q9UKT9); assay: Western-blot assay of substrate protein degradation in hPBMC, IKZF3; format: cell-based; conditions: hPBMC cells, compound 500 nM, 24 hours, Western blot
Chain of IKZF3 protein (Q9UKT9 whole entry): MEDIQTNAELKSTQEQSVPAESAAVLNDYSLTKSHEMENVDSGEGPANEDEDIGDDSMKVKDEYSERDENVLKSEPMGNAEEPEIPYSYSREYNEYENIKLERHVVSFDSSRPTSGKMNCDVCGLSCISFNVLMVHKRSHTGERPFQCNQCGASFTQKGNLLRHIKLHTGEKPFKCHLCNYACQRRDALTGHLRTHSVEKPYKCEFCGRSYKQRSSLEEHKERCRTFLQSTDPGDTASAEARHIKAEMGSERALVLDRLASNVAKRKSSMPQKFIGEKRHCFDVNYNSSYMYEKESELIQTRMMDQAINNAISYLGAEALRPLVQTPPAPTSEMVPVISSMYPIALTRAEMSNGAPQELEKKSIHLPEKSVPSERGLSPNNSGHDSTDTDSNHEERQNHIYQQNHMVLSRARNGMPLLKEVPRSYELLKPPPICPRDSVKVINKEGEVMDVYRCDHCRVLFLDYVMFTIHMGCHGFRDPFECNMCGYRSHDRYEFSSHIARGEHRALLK
Chain of IKZF3 protein (Q96SW2 whole entry): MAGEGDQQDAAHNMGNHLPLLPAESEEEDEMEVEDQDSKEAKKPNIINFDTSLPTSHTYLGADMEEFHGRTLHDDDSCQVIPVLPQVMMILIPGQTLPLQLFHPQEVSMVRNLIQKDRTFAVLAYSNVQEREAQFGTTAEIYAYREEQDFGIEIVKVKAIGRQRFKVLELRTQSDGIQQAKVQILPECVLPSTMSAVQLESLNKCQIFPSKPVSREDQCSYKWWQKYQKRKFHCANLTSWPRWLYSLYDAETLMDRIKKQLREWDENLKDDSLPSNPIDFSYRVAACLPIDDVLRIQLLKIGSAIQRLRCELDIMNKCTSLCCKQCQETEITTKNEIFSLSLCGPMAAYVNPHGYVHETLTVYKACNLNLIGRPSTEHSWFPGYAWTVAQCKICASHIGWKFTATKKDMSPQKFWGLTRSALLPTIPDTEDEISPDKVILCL
Chain of IKZF3 protein (Q16531 whole entry partner): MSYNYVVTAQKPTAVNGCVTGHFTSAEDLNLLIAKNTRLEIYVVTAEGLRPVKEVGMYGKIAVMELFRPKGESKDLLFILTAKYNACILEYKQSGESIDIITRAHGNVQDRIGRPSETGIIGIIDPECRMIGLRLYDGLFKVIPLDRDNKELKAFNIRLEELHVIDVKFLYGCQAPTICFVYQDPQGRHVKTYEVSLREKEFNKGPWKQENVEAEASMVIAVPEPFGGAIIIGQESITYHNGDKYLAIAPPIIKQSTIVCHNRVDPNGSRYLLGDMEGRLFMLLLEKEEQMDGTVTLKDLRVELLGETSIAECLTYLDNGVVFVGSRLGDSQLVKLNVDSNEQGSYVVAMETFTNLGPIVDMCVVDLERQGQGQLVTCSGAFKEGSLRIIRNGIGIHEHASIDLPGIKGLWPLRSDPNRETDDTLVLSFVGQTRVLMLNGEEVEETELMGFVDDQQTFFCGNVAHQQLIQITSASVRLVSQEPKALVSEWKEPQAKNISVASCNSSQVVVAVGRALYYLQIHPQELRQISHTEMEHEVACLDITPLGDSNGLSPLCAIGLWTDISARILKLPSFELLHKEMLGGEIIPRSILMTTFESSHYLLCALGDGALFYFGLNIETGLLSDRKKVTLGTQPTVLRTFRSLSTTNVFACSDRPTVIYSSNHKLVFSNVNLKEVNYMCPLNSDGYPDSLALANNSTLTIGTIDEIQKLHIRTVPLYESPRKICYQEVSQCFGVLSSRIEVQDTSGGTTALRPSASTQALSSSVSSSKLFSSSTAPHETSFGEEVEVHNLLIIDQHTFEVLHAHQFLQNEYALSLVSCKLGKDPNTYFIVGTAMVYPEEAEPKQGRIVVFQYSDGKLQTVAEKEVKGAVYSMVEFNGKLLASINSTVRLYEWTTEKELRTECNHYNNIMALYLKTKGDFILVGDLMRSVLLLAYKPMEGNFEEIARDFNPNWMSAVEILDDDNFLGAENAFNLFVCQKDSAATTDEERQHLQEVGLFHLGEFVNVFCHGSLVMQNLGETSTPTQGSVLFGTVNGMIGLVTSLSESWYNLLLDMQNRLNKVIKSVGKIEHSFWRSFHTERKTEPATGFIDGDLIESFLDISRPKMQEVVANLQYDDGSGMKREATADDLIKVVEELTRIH

[4] = test system: Mino cells; assay: Tumor cell proliferation IC50 (CCK-8), Mino; conditions: Homo sapiens, 72 h, read-out: IC50 for inhibiting the proliferation of tumor cells, Mino;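 note: cell viability assessed with CCK-8 reagent after compound exposure, IC50 derived from plotted growth inhibition curves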
[5] = molecular target: IKZF1 protein (Homo sapiens (Human), UniProt Q13422+Q96SW2); assay: Western-blot assay of substrate protein degradation in hPBMC, IKZF1; format: cell-based; conditions: hPBMC cells, compound 500 nM, 24 hours, Western blot
Chain of IKZF1 protein (Q13422 whole entry): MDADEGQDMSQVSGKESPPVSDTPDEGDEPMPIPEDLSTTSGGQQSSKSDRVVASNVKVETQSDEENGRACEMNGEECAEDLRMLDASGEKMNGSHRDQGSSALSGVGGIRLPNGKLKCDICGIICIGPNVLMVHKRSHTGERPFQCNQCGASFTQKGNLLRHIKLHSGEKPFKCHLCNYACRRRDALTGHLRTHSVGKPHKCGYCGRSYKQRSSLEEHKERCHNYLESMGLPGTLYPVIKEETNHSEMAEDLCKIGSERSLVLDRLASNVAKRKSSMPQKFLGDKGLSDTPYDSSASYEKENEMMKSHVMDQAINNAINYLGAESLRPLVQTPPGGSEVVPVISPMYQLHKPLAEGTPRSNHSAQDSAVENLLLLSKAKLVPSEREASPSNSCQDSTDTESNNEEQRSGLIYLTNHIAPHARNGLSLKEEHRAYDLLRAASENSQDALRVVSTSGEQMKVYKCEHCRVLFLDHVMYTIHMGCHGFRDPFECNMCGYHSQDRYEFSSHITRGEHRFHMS
Chain of IKZF1 protein (Q96SW2 whole entry): as the sequence (Q96SW2 whole entry) above
Chain of IKZF1 protein (Q16531 whole entry partner): as the sequence (Q16531 whole entry partner) above

[6] = molecular target: GSPT1 protein (Homo sapiens (Human), UniProt P15170+Q96SW2); assay: Western-blot assay of substrate protein degradation in hPBMC, GSPT1; format: cell-based; conditions: hPBMC cells, compound 500 nM, 24 hours, Western blot
Chain of GSPT1 protein (P15170 whole entry): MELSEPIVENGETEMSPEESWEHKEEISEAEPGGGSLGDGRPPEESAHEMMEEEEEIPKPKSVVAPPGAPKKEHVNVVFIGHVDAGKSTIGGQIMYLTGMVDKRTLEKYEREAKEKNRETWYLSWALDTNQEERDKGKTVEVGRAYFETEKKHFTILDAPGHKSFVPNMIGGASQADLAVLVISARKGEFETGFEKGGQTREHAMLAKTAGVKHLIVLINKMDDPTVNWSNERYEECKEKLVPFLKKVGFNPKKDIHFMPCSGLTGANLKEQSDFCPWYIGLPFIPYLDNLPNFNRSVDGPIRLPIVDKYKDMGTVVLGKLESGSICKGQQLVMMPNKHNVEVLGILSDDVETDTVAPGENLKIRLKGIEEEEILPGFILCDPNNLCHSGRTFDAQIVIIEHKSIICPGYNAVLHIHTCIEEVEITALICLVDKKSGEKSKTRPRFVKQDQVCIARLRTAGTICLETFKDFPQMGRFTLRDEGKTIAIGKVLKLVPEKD
Chain of GSPT1 protein (Q96SW2 whole entry): as the sequence (Q96SW2 whole entry) above
Chain of GSPT1 protein (Q16531 whole entry partner): as the sequence (Q16531 whole entry partner) above

Chain of human Cereblon WT GST-tagged protein (Q96SW2 whole entry): as the sequence (Q96SW2 whole entry) above

Row | IC50 [1] [nM] | IC50 [2] [nM] | IC50 [4] [nM] | SMILES | residual substrate protein level, IKZF3 [3] | residual substrate protein level, IKZF1 [5] | residual substrate protein level, GSPT1 [6]
1 | 550 | 5 to 10 |  | CC1(C)CCC(C(=O)N2CC3CC2CN3Cc2ccc3c(c2)CN(C2CCC(=O)NC2=O)C3=O)=C(c2ccc(F)cc2)C1 (centres unmarked) [GT-05403, 3-(5-((5-(4′-fluoro-5,5-dimethyl-3,4,5,6-tetrahydro-[1,1′-biphenyl]-2-carbonyl)-2,5-diazabicyclo[2.2.1]heptan-2-yl)methyl)-1-oxoisoindolin-2-yl)piperidine-2,6-dione] |  |  | 
2 | 840 | 100 to 500 | 5 to 10 | O=C1CCC(N2Cc3cc(CN4CCN(Cc5cnc(-c6ccccc6)cn5)CC4)ccc3C2=O)C(=O)N1 (centres unmarked) [GT-05544, 3-(1-oxo-5-((4-((5-phenylpyrazin-2-yl)methyl)piperazin-1-yl)methyl)isoindolin-2-yl)piperidine-2,6-dione] | A (A represents a residual substrate protein level of <50%) | A (A represents a residual substrate protein level of <50%) | B (B represents a residual substrate protein level of >50%)
3 | 710 | 50 to 100 | 50 to 100 | CC1(C)CCC(CN2CCN(Cc3ccc4c(c3)CN(C3CCC(=O)NC3=O)C4=O)CC2)=C(c2cnco2)C1 (centres unmarked) [GT-05848, 3-(5-((4-((4,4-dimethyl-2-(oxazol-5-yl)cyclohex-1-en-1-yl)methyl)piperazin-1-yl)methyl)-1-oxoisoindolin-2-yl)piperidine-2,6-dione] | A (A represents a residual substrate protein level of <50%) | A (A represents a residual substrate protein level of <50%) | B (B represents a residual substrate protein level of >50%)
4 | 610 | 100 to 500 | 500 to 1000 | Cn1nccc1-c1ccccc1CN1CCN(Cc2ccc3c(c2)CN(C2CCC(=O)NC2=O)C3=O)CC1 (centres unmarked) [GT-05702, 3-(5-((4-(2-(1-methyl-1H-pyrazol-5-yl)benzyl)piperazin-1-yl)methyl)-1-oxoisoindolin-2-yl)piperidine-2,6-dione] | A (A represents a residual substrate protein level of <50%) | A (A represents a residual substrate protein level of <50%) | A (A represents a residual substrate protein level of <50%)
5 |  | 500 to 1000 |  | O=C1CCC(N2Cc3cc(CN4CCN(Cc5ccc(-c6ccc(Cl)cn6)cc5)CC4)ccc3C2=O)C(=O)N1 (centres unmarked) [GT-05872, 3-(5-((4-(4-(5-chloropyridin-2-yl)benzyl)piperazin-1-yl)methyl)-1-oxoisoindolin-2-yl)piperidine-2,6-dione] | B (B represents a residual substrate protein level of >50%) | A (A represents a residual substrate protein level of <50%) | B (B represents a residual substrate protein level of >50%)
6 | 1230 | 50 to 100 |  | CC1(C)CCC(CN2CCC3(CC2)CN(Cc2ccc4c(c2)CN(C2CCC(=O)NC2=O)C4=O)C3)=C(c2ccc(Cl)cc2)C1 (centres unmarked) [GT-05677, 3-(5-((7-((4′-chloro-5,5-dimethyl-3,4,5,6-tetrahydro-[1,1′-biphenyl]-2-yl)methyl)-2,7-diazaspiro[3.5]nonan-2-yl)methyl)-1-oxoisoindolin-2-yl)piperidine-2,6-dione] | A (A represents a residual substrate protein level of <50%) | A (A represents a residual substrate protein level of <50%) | B (B represents a residual substrate protein level of >50%)
7 | 1670 | 500 to 1000 | 100 to 500 | O=C1CCC(N2C(=O)c3ccc(CN4CCN(Cc5ccc(-c6ccc(Cl)cc6)cc5)CC4)cc3C2=O)C(=O)N1 (centres unmarked) [GT-05599, 5-((4-((4′-chloro-[1,1′-biphenyl]-4-yl)methyl)piperazin-1-yl)methyl)-2-(2,6-dioxopiperidin-3-yl)isoindoline-1,3-dione] | A (A represents a residual substrate protein level of <50%) | A (A represents a residual substrate protein level of <50%) | B (B represents a residual substrate protein level of >50%)
8 | 590 | 100 to 500 |  | CC1(C)CCC(CN2CCCN(Cc3ccc4c(c3)CN(C3CCC(=O)NC3=O)C4=O)CC2)=C(c2ccc(Cl)cc2)C1 (centres unmarked) [GT-05396, 3-(5-((4-((4′-chloro-5,5-dimethyl-3,4,5,6-tetrahydro-[1,1′-biphenyl]-2-yl)methyl)-1,4-diazepan-1-yl)methyl)-1-oxoisoindolin-2-yl)piperidine-2,6-dione] | A (A represents a residual substrate protein level of <50%) | B (B represents a residual substrate protein level of >50%) | A (A represents a residual substrate protein level of <50%)
9 | 230 | 100 to 500 | 100 to 500 | O=C1CCC(N2Cc3cc(CN4CCN(C(=O)c5ccccc5-c5ccc(Cl)cc5)CC4)ccc3C2=O)C(=O)N1 (centres unmarked) [GT-03891, 3-(5-((4-(4′-chloro-[1,1′-biphenyl]-2-carbonyl)piperazin-1-yl)methyl)-1-oxoisoindolin-2-yl)piperidine-2,6-dione] |  |  | 
10 | 700 | 100 to 500 |  | CC1(C)CCC(C(=O)N2CCC3(CC2)CN(Cc2ccc4c(c2)CN(C2CCC(=O)NC2=O)C4=O)C3)=C(c2ccc(Cl)cc2)C1 (centres unmarked) [GT-05656, 3-(5-((7-(4′-chloro-5,5-dimethyl-3,4,5,6-tetrahydro-[1,1′-biphenyl]-2-carbonyl)-2,7-diazaspiro[3.5]nonan-2-yl)methyl)-1-oxoisoindolin-2-yl)piperidine-2,6-dione] | A (A represents a residual substrate protein level of <50%) | B (B represents a residual substrate protein level of >50%) | B (B represents a residual substrate protein level of >50%)

Row | SMILES | IC50 [1] [nM] | IC50 [2] [nM] | IC50 [4] [nM] | residual substrate protein level, IKZF3 [3] | residual substrate protein level, IKZF1 [5] | residual substrate protein level, GSPT1 [6]
11 | CC1(C)CCC(CN2C3CC2CN(Cc2ccc4c(c2F)CN(C2CCC(=O)NC2=O)C4=O)C3)=C(c2ccc(Cl)cc2)C1 (centres unmarked) [GT-05529, 3-(5-((6-((4′-chloro-5,5-dimethyl-3,4,5,6-tetrahydro-[1,1′-biphenyl]-2-yl)methyl)-3,6-diazabicyclo[3.1.1]heptan-3-yl)methyl)-4-fluoro-1-oxoisoindolin-2-yl)piperidine-2,6-dione] | 350 | 100 to 500 | 500 to 1000 | A (A represents a residual substrate protein level of <50%) | A (A represents a residual substrate protein level of <50%) | B (B represents a residual substrate protein level of >50%)
12 | O=C1CCC(N2Cc3cc(CN4C5CCC4CN(C(=O)c4ccccc4-c4ccc(Cl)cc4)C5)ccc3C2=O)C(=O)N1 (centres unmarked) [GT-05788, 3-(5-((3-(4′-chloro-[1,1′-biphenyl]-2-carbonyl)-3,8-diazabicyclo[3.2.1]octan-8-yl)methyl)-1-oxoisoindolin-2-yl)piperidine-2,6-dione] | 500 | 50 to 100 | 100 to 500 |  |  | 
13 | CC1(C)CCC(CN2CC3CC(C2)N3Cc2cc(F)c3c(c2)CN(C2CCC(=O)NC2=O)C3=O)=C(c2ccc(Cl)cc2)C1 (centres unmarked) [GT-05383, 3-(5-((3-((4′-chloro-5,5-dimethyl-3,4,5,6-tetrahydro-[1,1′-biphenyl]-2-yl)methyl)-3,6-diazabicyclo[3.1.1]heptan-6-yl)methyl)-7-fluoro-1-oxoisoindolin-2-yl)piperidine-2,6-dione] | 540 | 500 to 1000 |  | B (B represents a residual substrate protein level of >50%) | B (B represents a residual substrate protein level of >50%) | A (A represents a residual substrate protein level of <50%)
14 | O=C1CCC(N2Cc3c(ccc(CN4C5CC4CN(Cc4ccccc4-c4ccc(Cl)cc4)C5)c3F)C2=O)C(=O)N1 (centres unmarked) [GT-05608, 3-(5-((3-((4′-chloro-[1,1′-biphenyl]-2-yl)methyl)-3,6-diazabicyclo[3.1.1]heptan-6-yl)methyl)-4-fluoro-1-oxoisoindolin-2-yl)piperidine-2,6-dione] | 800 |  | 500 to 1000 | A (A represents a residual substrate protein level of <50%) | B (B represents a residual substrate protein level of >50%) | A (A represents a residual substrate protein level of <50%)
15 | O=C1CCC(N2C(=O)c3ccc(N4C5CCC4CN(Cc4ccccc4-c4ccc(Cl)cc4)C5)cc3C2=O)C(=O)N1 (centres unmarked) [GT-05370, 5-(3-((4′-chloro-[1,1′-biphenyl]-2-yl)methyl)-3,8-diazabicyclo[3.2.1]octan-8-yl)-2-(2,6-dioxopiperidin-3-yl)isoindoline-1,3-dione] |  | < 5 |  | A (A represents a residual substrate protein level of <50%) | B (B represents a residual substrate protein level of >50%) | A (A represents a residual substrate protein level of <50%)
